The source of these data is ChEMBL document CHEMBL1201862, “PubChem BioAssay data set” (2004).

Activity calls are given as the source filed them. Rule as the data show it, for most assays here: actives have a measured EC50 and inactives only a lower limit.

Chain of Cytochrome P450 2D6 (P10635 whole entry): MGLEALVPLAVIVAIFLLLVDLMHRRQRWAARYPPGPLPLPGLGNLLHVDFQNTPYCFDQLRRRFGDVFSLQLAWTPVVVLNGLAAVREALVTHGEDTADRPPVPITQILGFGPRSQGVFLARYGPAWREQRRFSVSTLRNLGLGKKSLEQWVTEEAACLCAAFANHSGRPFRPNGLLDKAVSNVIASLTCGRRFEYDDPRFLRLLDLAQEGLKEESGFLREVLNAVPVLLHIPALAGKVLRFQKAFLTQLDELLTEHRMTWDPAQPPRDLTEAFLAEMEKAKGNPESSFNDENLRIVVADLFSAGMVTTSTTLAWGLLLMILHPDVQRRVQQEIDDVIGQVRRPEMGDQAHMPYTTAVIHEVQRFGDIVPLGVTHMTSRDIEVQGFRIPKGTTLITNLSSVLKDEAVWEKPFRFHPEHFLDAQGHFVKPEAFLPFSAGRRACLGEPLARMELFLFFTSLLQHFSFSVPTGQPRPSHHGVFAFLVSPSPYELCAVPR

The first test concerns the target T1, Replicative DNA helicase DnaB (Mycobacterium tuberculosis, UniProt P9WMR3).
T1 sequence (P9WMR3 whole entry): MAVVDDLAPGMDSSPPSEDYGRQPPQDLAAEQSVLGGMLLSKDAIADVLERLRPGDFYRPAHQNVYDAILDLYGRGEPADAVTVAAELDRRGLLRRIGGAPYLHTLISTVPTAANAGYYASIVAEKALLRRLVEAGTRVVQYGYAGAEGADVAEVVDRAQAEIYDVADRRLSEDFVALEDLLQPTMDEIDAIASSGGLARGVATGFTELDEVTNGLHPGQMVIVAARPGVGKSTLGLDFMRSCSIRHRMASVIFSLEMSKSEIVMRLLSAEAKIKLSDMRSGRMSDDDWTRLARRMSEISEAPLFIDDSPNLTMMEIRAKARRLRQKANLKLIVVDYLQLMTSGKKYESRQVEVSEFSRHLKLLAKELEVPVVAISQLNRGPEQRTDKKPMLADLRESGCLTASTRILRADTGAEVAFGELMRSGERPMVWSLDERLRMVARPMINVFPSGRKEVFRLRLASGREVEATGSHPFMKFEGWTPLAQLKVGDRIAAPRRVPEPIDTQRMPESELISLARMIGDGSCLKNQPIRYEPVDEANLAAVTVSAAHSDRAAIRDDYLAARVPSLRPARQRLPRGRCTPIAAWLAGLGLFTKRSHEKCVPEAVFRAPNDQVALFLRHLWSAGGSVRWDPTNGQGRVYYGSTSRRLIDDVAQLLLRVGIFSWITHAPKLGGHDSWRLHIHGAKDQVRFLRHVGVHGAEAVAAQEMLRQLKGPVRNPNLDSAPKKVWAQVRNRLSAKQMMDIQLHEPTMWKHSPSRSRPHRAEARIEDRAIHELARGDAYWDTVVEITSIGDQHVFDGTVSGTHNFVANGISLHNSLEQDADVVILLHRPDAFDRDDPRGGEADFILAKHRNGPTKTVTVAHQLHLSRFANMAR
In words: DnaB intein splicing inhibitors, dose response, biochemical, cell-free fluorescence (AID 449749). It counts as functional.
Details: not given
The AC50 is the concentration at which the activity in the assay is half-maximal. Consider `Cc1nc2ccccc2c2c1C(=O)N(C(C)C)C2=O`, for which the AC50 was 192 µM (active).
For `O=C(c1ccccc1)c1c[nH]c(C(=O)C(Cl)(Cl)Cl)c1`, the AC50 is 21.7 µM (active).
The same measure, in the same setting: the value for `Cc1nn(Cc2ccccc2)c2c1C(c1ccco1)C(C#N)=C(N)O2` (stereo not drawn) was > 380 µM (inactive); that for `Cc1nn(C(=O)c2cccnc2)c(C)c1Sc1ccc(Br)cc1` was 4.61 µM (active).
Still for that read-out and setting: as for `O=C1NC2=C(CCc3ccccc32)C(c2ccccc2)N1` (stereo not drawn), the figure is 2.19 µM (active); as for `CC(C)(C)C(=O)Nc1ccc(N=Nc2ccccc2)cc1`, 4.35 µM (active).
For the molecule `O=C(NC(NC(=S)Nc1ccc(Cl)cc1Cl)C(Cl)(Cl)Cl)c1cccc([N+](=O)[O-])c1` (stereo not drawn), the AC50 is 2.33 µM (active).
On the same count and under the same terms, as for `Cc1nn(-c2ccccc2)c2c1C1(C(=O)N3c4c(cccc41)C(C)CC3(C)C)C(C#N)=C(N)O2` (stereo not drawn), the figure is 4.61 µM (active); as for `O=C(CSc1nnc(-c2ccccc2Cl)o1)Oc1ccc(Br)cc1`, 1.42 µM (active).

Another test has as its target Cytochrome P450 2D6 (Homo sapiens, UniProt P10635).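 Also: CYP2D6 member of a cytochrome P450 panel assay.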
Details: not given
For the molecule `Cc1nn(C(=O)c2cccnc2)c(C)c1Sc1ccc(Br)cc1`, the AC50 was 25.1 µM (inconclusive).

Another test deals with Cytochrome P450 3A4 (Homo sapiens, UniProt P08684).
Chain of Cytochrome P450 3A4 (P08684 whole entry): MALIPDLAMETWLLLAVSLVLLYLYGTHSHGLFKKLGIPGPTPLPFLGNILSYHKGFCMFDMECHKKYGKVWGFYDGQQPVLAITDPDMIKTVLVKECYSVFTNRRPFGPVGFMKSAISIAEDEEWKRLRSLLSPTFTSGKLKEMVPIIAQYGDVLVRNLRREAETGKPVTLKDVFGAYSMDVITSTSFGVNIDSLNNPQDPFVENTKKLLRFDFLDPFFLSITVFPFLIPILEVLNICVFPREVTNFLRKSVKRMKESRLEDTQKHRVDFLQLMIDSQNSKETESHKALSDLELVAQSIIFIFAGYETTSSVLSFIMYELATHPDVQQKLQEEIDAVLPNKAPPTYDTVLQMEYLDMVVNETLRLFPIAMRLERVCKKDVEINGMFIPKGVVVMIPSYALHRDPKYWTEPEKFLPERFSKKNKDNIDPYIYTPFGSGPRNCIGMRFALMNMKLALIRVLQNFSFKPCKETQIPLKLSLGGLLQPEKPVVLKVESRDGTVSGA
Details: not given
Consider `Cc1nn(C(=O)c2cccnc2)c(C)c1Sc1ccc(Br)cc1`, for which the AC50 is 15.8 µM (inconclusive).

Tested on in a further test: not listed separately
In words: Luminescence Cell-Based Dose Response HTS to Identify Activators of Luciferase Translation or Activity in H4 […] Cells. [Related pubchem assays: 1829 (Project Summary), 1814 (Primary HTS)].
Details: not given
In kind it is functional.
For orientation: EC50 means the midpoint of the concentration-response curve. For `O=C(c1ccc(F)cc1)c1ccc(-c2ccc(F)cc2)nc1`, the EC50 is 11.9 µM (active).
In the case of `O=C(Nc1cc(Cl)ccc1-n1cncn1)c1ccc([N+](=O)[O-])o1`, the EC50 is given as > 120 µM (not active).

The target in a further test is T2, Streptokinase A (Streptococcus pyogenes serotype M1, UniProt P10520).
T2 sequence (P10520 whole entry): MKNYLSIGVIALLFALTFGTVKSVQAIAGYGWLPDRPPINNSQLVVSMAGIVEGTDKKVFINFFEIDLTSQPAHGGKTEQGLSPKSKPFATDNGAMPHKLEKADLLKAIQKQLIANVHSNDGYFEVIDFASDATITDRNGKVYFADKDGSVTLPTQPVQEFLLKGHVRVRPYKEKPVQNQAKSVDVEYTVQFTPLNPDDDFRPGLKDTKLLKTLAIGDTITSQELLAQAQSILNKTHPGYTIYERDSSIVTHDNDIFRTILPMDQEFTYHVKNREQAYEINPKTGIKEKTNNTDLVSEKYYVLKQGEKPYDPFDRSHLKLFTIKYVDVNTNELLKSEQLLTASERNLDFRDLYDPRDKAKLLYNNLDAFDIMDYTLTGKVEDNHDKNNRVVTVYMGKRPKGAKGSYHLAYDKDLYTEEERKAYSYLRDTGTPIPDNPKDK
The test can be described thus: S. pyogenes streptokinase expression inhibitors, potency, dose response, plasminogen activation absorbance, OD405 (AID 1914).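 Also: secreted streptokinase activity via plasminogen activation per viability signal from cell pellet.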 It counts as functional, Streptococcus pyogenes M1 GAS.
Details: not given
Turning to `Cc1nn(C(=O)c2cccnc2)c(C)c1Sc1ccc(Br)cc1`, the EC50 is > 150 µM (not active).
The same measure, in the same setting: the value for `O=C(Nc1cc(Cl)ccc1-n1cncn1)c1ccc([N+](=O)[O-])o1` was 56.7 µM (inconclusive).

A further test concerns the target T3, Heat shock factor protein 1 (Mus musculus, UniProt P38532).
T3 sequence (P38532 whole entry): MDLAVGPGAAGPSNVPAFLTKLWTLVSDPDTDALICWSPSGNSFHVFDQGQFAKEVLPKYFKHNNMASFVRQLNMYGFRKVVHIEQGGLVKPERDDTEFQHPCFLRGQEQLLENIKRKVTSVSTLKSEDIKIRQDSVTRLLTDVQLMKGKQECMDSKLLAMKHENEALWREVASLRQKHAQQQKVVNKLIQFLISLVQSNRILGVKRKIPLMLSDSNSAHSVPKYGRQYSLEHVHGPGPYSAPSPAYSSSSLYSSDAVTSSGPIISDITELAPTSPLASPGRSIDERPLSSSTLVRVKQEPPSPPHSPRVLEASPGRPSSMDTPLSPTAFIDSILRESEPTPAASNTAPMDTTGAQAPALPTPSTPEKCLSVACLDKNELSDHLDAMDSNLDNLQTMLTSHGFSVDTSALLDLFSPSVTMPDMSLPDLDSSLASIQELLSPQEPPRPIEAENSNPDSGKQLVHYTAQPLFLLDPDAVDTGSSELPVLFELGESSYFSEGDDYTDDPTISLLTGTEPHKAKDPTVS
In words: inhibition of MG132-induced HSE-luciferase signal, confirmation, cell-based, NIH3T3, luminescence, dose retest (AID 2382).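 Also: NIH3T3 fibroblasts with HSF1-driven luciferase reporter stressed by proteasome inhibitor MG132; luminescence from HSF1-driven luciferase expression after 8 hours of MG132 stress.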
Details: not given
In kind it is functional.
As to `CC(C)(C)C(=O)Nc1ccc(N=Nc2ccccc2)cc1`, the EC50 was < 0.16 µM (active).

A further test has as its system Streptococcus. The test can be described thus: Group A Streptococcus viability loss, dose response, counter-screen for streptokinase expression inhibitor project, luminescence, BacTiterGlo (AID 1915).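 Also: potency for reduction of bacterial viability or growth.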 In kind it is functional, organism-based.
Details: not given
Take `Cc1nn(C(=O)c2cccnc2)c(C)c1Sc1ccc(Br)cc1`: the EC50 was > 150 µM (not active).
Turning to `O=C(Nc1cc(Cl)ccc1-n1cncn1)c1ccc([N+](=O)[O-])o1`, the EC50 is > 150 µM (not active).

The next test deals with H4. The test can be described thus: Luminescence Cell-Based Dose Response HTS to Identify Activators of 5'UTR Stem-Loop Driven Prion Protein mRNA Translation in H4 Neuroglioblastoma Cells. [Related pubchem assays: 1829 (Project Summary), 1814 (Primary HTS)]. The following applies: Homo sapiens. In kind it is functional.
In the case of `O=C(c1ccc(F)cc1)c1ccc(-c2ccc(F)cc2)nc1`, the EC50 was 11.6 µM (active).
Still for that read-out and setting: the value for `O=C(Nc1cc(Cl)ccc1-n1cncn1)c1ccc([N+](=O)[O-])o1` was > 120 µM (not active).

The next test concerns Streptococcus sp. 'group A'. In words: growth inhibition of control SK(-) GAS strain, dose response, counter-screen for streptokinase expression inhibitor project, luminescence, kanamycin, BacTiterGlo, confirmation (AID 1900).
Details: not given
It counts as functional, organism-based. (Counterscreens check selectivity or assay interference.)
Take `Cc1nn(C(=O)c2cccnc2)c(C)c1Sc1ccc(Br)cc1`: the concentration giving a half-maximal response (EC50) was 11.1 µM (active).
For `O=C(Nc1cc(Cl)ccc1-n1cncn1)c1ccc([N+](=O)[O-])o1`, the EC50 is 11.7 µM (active).

Another test has as its target T4, Protein RecA (Mycobacterium tuberculosis, UniProt P9WHJ3).
T4 sequence (P9WHJ3 whole entry): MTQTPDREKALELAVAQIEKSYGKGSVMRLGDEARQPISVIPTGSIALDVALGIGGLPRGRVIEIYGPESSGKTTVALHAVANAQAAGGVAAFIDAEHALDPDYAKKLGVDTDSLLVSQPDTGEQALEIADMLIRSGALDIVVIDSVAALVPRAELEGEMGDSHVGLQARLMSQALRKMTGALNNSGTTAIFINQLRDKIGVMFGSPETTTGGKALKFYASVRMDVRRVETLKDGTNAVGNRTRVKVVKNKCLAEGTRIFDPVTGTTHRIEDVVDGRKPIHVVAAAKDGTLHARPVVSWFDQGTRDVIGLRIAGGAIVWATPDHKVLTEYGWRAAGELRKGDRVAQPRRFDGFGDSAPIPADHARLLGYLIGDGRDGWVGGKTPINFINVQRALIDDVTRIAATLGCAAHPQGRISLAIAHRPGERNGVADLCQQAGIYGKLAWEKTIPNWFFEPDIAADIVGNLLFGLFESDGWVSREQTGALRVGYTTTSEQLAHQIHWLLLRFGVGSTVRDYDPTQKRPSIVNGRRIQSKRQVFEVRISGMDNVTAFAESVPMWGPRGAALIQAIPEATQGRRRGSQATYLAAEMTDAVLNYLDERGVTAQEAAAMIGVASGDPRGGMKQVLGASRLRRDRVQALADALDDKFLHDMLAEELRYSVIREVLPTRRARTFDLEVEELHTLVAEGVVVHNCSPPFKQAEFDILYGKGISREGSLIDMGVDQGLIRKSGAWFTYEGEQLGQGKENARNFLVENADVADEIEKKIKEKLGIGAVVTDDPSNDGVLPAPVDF
In words: Fluorescence Cell-Free Homogeneous Dose Retest to Identify Inhibitors of RecA-Intein Splicing Activity. [Related pubchem assays (depositor defined):AID2097, AID2223, AID489010, AID492950]. In kind it is functional.
Details: not given
On to `Cc1nc2ccccc2c2c1C(=O)N(C(C)C)C2=O`, for which the EC50 was 0.851 µM (active).
In the case of `O=C(c1ccccc1)c1c[nH]c(C(=O)C(Cl)(Cl)Cl)c1`, the EC50 was 8.23 µM (active).
For the molecule `Cc1nn(Cc2ccccc2)c2c1C(c1ccco1)C(C#N)=C(N)O2` (stereo not drawn), the EC50 is 3.15 µM (active).
Same read-out and setting: the value for `Cc1nn(C(=O)c2cccnc2)c(C)c1Sc1ccc(Br)cc1` was 18.7 µM (active); that for `O=C1NC2=C(CCc3ccccc32)C(c2ccccc2)N1` (stereo not drawn) was 1.67 µM (active); that for `CC(C)(C)C(=O)Nc1ccc(N=Nc2ccccc2)cc1` was 2.85 µM (active).
Still for that read-out and setting: the value for `O=C(NC(NC(=S)Nc1ccc(Cl)cc1Cl)C(Cl)(Cl)Cl)c1cccc([N+](=O)[O-])c1` (stereo not drawn) was 3.3 µM (active); that for `Cc1nn(-c2ccccc2)c2c1C1(C(=O)N3c4c(cccc41)C(C)CC3(C)C)C(C#N)=C(N)O2` (stereo not drawn) was 3.2 µM (active).
In the case of `O=C(CSc1nnc(-c2ccccc2Cl)o1)Oc1ccc(Br)cc1`, the EC50 was 3 µM (active).

Tested on in a further test: not listed separately
The test can be described thus: Luminescence Cell-Based Dose Confirmation HTS to Identify Activators of 5'UTR Stem-Loop Driven Alpha-Synuclein mRNA Translation in H4 Neuroglioblastoma Cells. [Related pubchem assays: 1829 (Project Summary), 1814 (Primary HTS)]. It counts as functional.
Details: not given
For `O=C(c1ccc(F)cc1)c1ccc(-c2ccc(F)cc2)nc1`, the EC50 was 4.41 µM (active).
Same read-out and setting: the value for `O=C(Nc1cc(Cl)ccc1-n1cncn1)c1ccc([N+](=O)[O-])o1` was > 120 µM (not active).
